Results as given in patent US20250163104A1, “MACROCYCLIC IMMUNOMODULATORS” (priority 2021, published 2025).
Where a SMILES comes first, the peptide text is derived from it. Bridges are numbered along the chain shown (N, C = ends). [ ]: non-standard residue; d: D form. The star is where a group is joined. ξ: configuration not given here. Ala(morpholin-4-yl) = N[C@@H](CN1CCOCC1)C(=O)O; Phe(4-COOH) = N[C@@H](Cc1ccc(C(=O)O)cc1)C(=O)O; Bip = N[C@@H](Cc1ccc(-c2ccccc2)cc1)C(=O)O; Phe(4-Cl) = N[C@@H](Cc1ccc(Cl)cc1)C(=O)O; Phe(3-Me) = Cc1cccc(C[C@H](N)C(=O)O)c1; Phe(2-F) = N[C@@H](Cc1ccccc1F)C(=O)O; d(aThr) = C[C@@H](O)[C@@H](N)C(=O)O; Val(3-OH) = CC(C)(O)[C@H](N)C(=O)O; mTyr = N[C@@H](Cc1cccc(O)c1)C(=O)O; 4Pal = N[C@@H](Cc1ccncc1)C(=O)O; Cha = N[C@@H](CC1CCCCC1)C(=O)O; Cit = NC(=O)NCCC[C@H](N)C(=O)O; Ile(3ξ) = CCC(C)[C@H](N)C(=O)O; Carboxymethyl = O=C(O)C*; Orn = NCCC[C@H](N)C(=O)O; Pra = C#CC[C@H](N)C(=O)O; Dab = NCC[C@H](N)C(=O)O; Dap = NC[C@H](N)C(=O)O

What follows are compounds tested against T1, human PD-1 / PD-L1-Ig binding on Jurkat cell line over-expressing human PD-1 (Jurkat-PD-1) (Homo sapiens, UniProt Q15116) (assay: Jurkat-PD-1 Cell Binding High-Content Screening Assay (CBA)). Settings: Jurkat-PD-1 cells, PE-labeled PD-L1-Ig 20 nM final; read-out: Jurkat HPD1_PDL1 IC50.
T1 construct: expressed in transfected cells; host or cells: Jurkat
T1 sequence (Q15116 25-288): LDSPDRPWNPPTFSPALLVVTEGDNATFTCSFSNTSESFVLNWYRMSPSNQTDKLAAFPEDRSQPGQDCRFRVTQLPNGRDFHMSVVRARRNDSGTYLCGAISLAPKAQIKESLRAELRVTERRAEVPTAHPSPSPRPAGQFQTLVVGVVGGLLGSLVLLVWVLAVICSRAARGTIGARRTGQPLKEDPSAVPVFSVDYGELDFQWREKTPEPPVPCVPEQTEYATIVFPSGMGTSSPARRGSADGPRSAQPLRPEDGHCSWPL
Type: cell-based
Summary of the method: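 Read-out: high-content imaging of PE-tagged PD-L1-Ig bound to Jurkat cells overexpressing human PD-1, after fixation with 4% paraformaldehyde and Hoechst 33342 nuclear staining. Ligand was used at 20 nM final for 1 hour, after a 2 h compound exposure at 37° C in serum-containing DMEM.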

Compound | IC50
Cc1cccc(C[C@@H]2NC(=O)[C@H](CC(=O)O)NC(=O)[C@H](Cc3ccc(OCC(=O)O)cc3)NC(=O)[C@H]([C@@H](C)O)NC(=O)CSC[C@@H](C(N)=O)NC(=O)[C@H](CCCN)NC(=O)[C@H](C(C)C)NC(=O)[C@H](CC3CCCCC3)NC(=O)[C@H](CCN)NC(=O)[C@@H](CC(C)C)NC(=O)[C@H](CCCN)NC(=O)[C@H](Cc3ccc(OCC(=O)O)cc3)NC(=O)[C@H](Cc3ccc(-c4ccccc4)cc3)NC(=O)[C@H](Cc3ccc(OCC(=O)O)cc3)NC2=O)c1 [Compound 1802] ({CH2CO}-TY(Carboxymethyl)D[Phe(3-Me)]Y(Carboxymethyl)[Bip]Y(Carboxymethyl)[Orn][dL][Dab][Cha]V[Orn]C-NH2; thioether N-14) | 9.5 nM
CC(C)C[C@H]1NC(=O)[C@H](CCCN)NC(=O)[C@H](CCC(=O)O)NC(=O)[C@H](Cc2ccc(-c3ccccc3)cc2)NC(=O)[C@H](C(C)C)NC(=O)[C@H](Cc2c[nH]c3ccccc23)NC(=O)[C@H](CC(=O)O)NC(=O)[C@H](Cc2ccc(OCC(=O)O)cc2)NC(=O)[C@H](CN)NC(=O)CSC[C@@H](C(=O)N[C@@H](C)C(N)=O)NC(=O)[C@H]([C@@H](C)O)NC(=O)[C@H](C(C)C)NC(=O)[C@H](Cc2ccccc2F)NC(=O)[C@H](CCN)NC1=O [Compound 1485] ({CH2CO}-[Dap]Y(Carboxymethyl)DWV[Bip]E[Orn][dL][Dab][Phe(2-F)]VTCA-NH2; thioether N-14) | 15.5 nM
Cc1cccc(C[C@@H]2NC(=O)[C@H](CC(=O)O)NC(=O)[C@H](Cc3ccc(C(=O)O)cc3)NC(=O)[C@H](Cc3ccncc3)NC(=O)CSC[C@@H](C(=O)N[C@@H](CCN)C(N)=O)NC(=O)[C@H]([C@@H](C)O)NC(=O)[C@H](C(C)C)NC(=O)[C@H](CC3CCCCC3)NC(=O)[C@H](CCN)NC(=O)[C@@H](CC(C)C)NC(=O)[C@H](CCCN)NC(=O)[C@H](Cc3ccc(O)cc3)NC(=O)[C@H](Cc3ccc(-c4ccccc4)cc3)NC(=O)[C@H](C(C)C)NC2=O)c1 [Compound 2292] ({CH2CO}-[4Pal][Phe(4-COOH)]D[Phe(3-Me)]V[Bip]Y[Orn][dL][Dab][Cha]VTC[Dab]-NH2; thioether N-14) | 18.4 nM
CC(C)C[C@@H]1NC(=O)[C@H](Cc2c[nH]c3ccccc23)NC(=O)[C@H](CC(=O)O)NC(=O)[C@H](Cc2ccc(O)cc2)NC(=O)[C@H](Cc2ccccc2)NC(=O)CSC[C@@H](C(=O)NCC(N)=O)NC(=O)[C@H]([C@@H](C)O)NC(=O)[C@H](C(C)C)NC(=O)[C@H](CC(C)C)NC(=O)[C@H](CCN)NC(=O)[C@@H](C)NC(=O)[C@H](CCN)NC(=O)[C@H](C(C)C)NC(=O)[C@H](Cc2ccc(-c3ccccc3)cc2)NC1=O [Compound 1103] ({CH2CO}-FYDWL[Bip]V[Dab][dA][Dab]LVTCG-NH2; thioether N-14) | 112 nM
CC(C)C[C@@H]1NC(=O)[C@H](CCN)NC(=O)[C@@H](CC(C)C)NC(=O)[C@H](Cc2ccc(O)cc2)NC(=O)[C@H](C(C)C)NC(=O)[C@H](Cc2ccc(-c3ccccc3)cc2)NC(=O)[C@@H](C(C)C)NC(=O)[C@H](Cc2c[nH]c3ccccc23)NC(=O)[C@H](CC(=O)O)NC(=O)[C@H](Cc2ccc(O)cc2)NC(=O)[C@H](CC(N)=O)NC(=O)CSC[C@@H](C(=O)N[C@@H](C)C(N)=O)NC(=O)[C@@H]([C@@H](C)O)NC(=O)[C@H](C(C)C)NC1=O [Compound 1031] ({CH2CO}-NYDW[dV][Bip]VY[dL][Dab]LV[d(aThr)]CA-NH2; thioether N-14) | 87.4 nM
CCNC(=O)[C@H](CCN)NC(=O)[C@@H]1CSCC(=O)N[C@@H](CN)C(=O)N[C@@H](Cc2ccc(OCC(=O)O)cc2)C(=O)N[C@@H](CC(=O)O)C(=O)N[C@@H](Cc2cccc(O)c2)C(=O)N[C@@H](Cc2ccc(O)cc2)C(=O)N[C@@H](Cc2ccc(-c3ccccc3)cc2)C(=O)N[C@@H](Cc2ccc(O)cc2)C(=O)N[C@@H](CCCN)C(=O)N[C@H](CC(C)C)C(=O)N[C@@H](CCN)C(=O)N[C@@H](CC2CCCCC2)C(=O)N[C@@H](C(C)C)C(=O)N[C@@H](CCCN)C(=O)N1 [Compound 2047] ({CH2CO}-[Dap]Y(Carboxymethyl)D[mTyr]Y[Bip]Y[Orn][dL][Dab][Cha]V[Orn]C[Dab]-NHEt; thioether N-14) | 2.8 nM
CC(C)C[C@H]1NC(=O)[C@H](CCCN)NC(=O)[C@H](CCCNC(N)=O)NC(=O)[C@H](Cc2ccc(-c3ccccc3)cc2)NC(=O)[C@H](C(C)C)NC(=O)[C@H](Cc2c[nH]c3ccccc23)NC(=O)[C@H](CC(=O)O)NC(=O)[C@H](CC(=O)O)NC(=O)[C@H](CN)NC(=O)CSC[C@@H](C(=O)N[C@@H](C)C(N)=O)NC(=O)[C@H]([C@@H](C)O)NC(=O)[C@H](C(C)C)NC(=O)[C@H](CC2CCCCC2)NC(=O)[C@H](CCN)NC1=O [Compound 2120] ({CH2CO}-[Dap]DDWV[Bip][Cit][Orn][dL][Dab][Cha]VTCA-NH2; thioether N-14) | 964 nM
Cc1cccc(C[C@@H]2NC(=O)[C@H](CC(=O)O)NC(=O)[C@H](Cc3ccc(O)cc3)NC(=O)[C@H](Cc3cnc[nH]3)NC(=O)CSC[C@@H](C(=O)N[C@H](C)C(N)=O)NC(=O)[C@H](CO)NC(=O)[C@H](C(C)(C)O)NC(=O)[C@H](CC3CCCCC3)NC(=O)[C@H](CCN)NC(=O)[C@@H](CC(C)C)NC(=O)[C@H](CCCN)NC(=O)[C@H](Cc3ccc(OCC(=O)O)cc3)NC(=O)[C@H](Cc3ccc(-c4ccccc4)cc3)NC(=O)[C@H](Cc3ccc(OCC(=O)O)cc3)NC2=O)c1 [Compound 2652] ({CH2CO}-HYD[Phe(3-Me)]Y(Carboxymethyl)[Bip]Y(Carboxymethyl)[Orn][dL][Dab][Cha][Val(3-OH)]SC[dA]-NH2; thioether N-14) | 29.6 nM
C#CC[C@H](NC(=O)[C@H](CCN)NC(=O)[C@@H]1CSCC(=O)N[C@@H](CN2CCOCC2)C(=O)N[C@@H](Cc2ccc(OCC(=O)O)cc2)C(=O)N[C@@H](CC(=O)O)C(=O)N[C@@H](Cc2cccc(C)c2)C(=O)N[C@@H](Cc2ccc(OCC(=O)O)cc2)C(=O)N[C@@H](Cc2ccc(-c3ccccc3)cc2)C(=O)N[C@@H](Cc2ccc(OCC(=O)O)cc2)C(=O)N[C@@H](CCCN)C(=O)N[C@H](CC(C)C)C(=O)N[C@@H](CCN)C(=O)N[C@@H](CC2CCCCC2)C(=O)N[C@@H](C(C)(C)O)C(=O)N[C@@H]([C@@H](C)O)C(=O)N1)C(N)=O [Compound 1859] ({CH2CO}-[Ala(morpholin-4-yl)]Y(Carboxymethyl)D[Phe(3-Me)]Y(Carboxymethyl)[Bip]Y(Carboxymethyl)[Orn][dL][Dab][Cha][Val(3-OH)]TC[Dab][Pra]-NH2; thioether N-14) | 2.1 nM
CCCC[C@H]1NC(=O)[C@H](CCCN)NC(=O)[C@H](CCCNC(N)=O)NC(=O)[C@H](Cc2ccc(-c3ccccc3)cc2)NC(=O)[C@H](C(C)C)NC(=O)[C@H](Cc2c[nH]c3ccccc23)NC(=O)[C@H](CC(=O)O)NC(=O)[C@H](Cc2ccc(OCC(=O)O)cc2)NC(=O)[C@H](Cc2ccncc2)NC(=O)CSC[C@@H](C(=O)N[C@@H](C)C(N)=O)NC(=O)[C@H]([C@@H](C)O)NC(=O)[C@H](C(C)C)NC(=O)[C@H](CC2CCCCC2)NC(=O)[C@H](CCN)NC1=O [Compound 1701] | 24.5 nM
Cc1cccc(C[C@@H]2NC(=O)[C@H](CC(=O)O)NC(=O)[C@H](Cc3ccc(C(=O)O)cc3)NC(=O)[C@H](Cc3ccncc3)NC(=O)CSC[C@@H](C(N)=O)NC(=O)[C@H](CC(N)=O)NC(=O)[C@H](C(C)C)NC(=O)[C@H](CC3CCCCC3)NC(=O)[C@H](CCN)NC(=O)[C@@H](CC(C)C)NC(=O)[C@H](CCCN)NC(=O)[C@H](CCCNC(N)=O)NC(=O)[C@H](Cc3ccc(-c4ccccc4)cc3)NC(=O)[C@H](C(C)C)NC2=O)c1 [Compound 2271] ({CH2CO}-[4Pal][Phe(4-COOH)]D[Phe(3-Me)]V[Bip][Cit][Orn][dL][Dab][Cha]VNC-NH2; thioether N-14) | 16 nM
CC(C)C[C@H]1NC(=O)[C@H](CCCN)NC(=O)[C@H](CCC(=O)O)NC(=O)[C@H](Cc2ccc(-c3ccccc3)cc2)NC(=O)[C@H](C(C)C)NC(=O)[C@H](Cc2c[nH]c3ccccc23)NC(=O)[C@H](CC(=O)O)NC(=O)[C@H](Cc2ccc(OCC(=O)O)cc2)NC(=O)[C@H](CN)NC(=O)CSC[C@@H](C(=O)N[C@@H](C)C(N)=O)NC(=O)[C@H]([C@@H](C)O)NC(=O)[C@H](C(C)C)NC(=O)[C@H](Cc2ccc(Cl)cc2)NC(=O)[C@H](CCN)NC1=O [Compound 1472] ({CH2CO}-[Dap]Y(Carboxymethyl)DWV[Bip]E[Orn][dL][Dab][Phe(4-Cl)]VTCA-NH2; thioether N-14) | 128 nM
CCC(C)[C@@H]1NC(=O)[C@H](Cc2ccc(-c3ccccc3)cc2)NC(=O)[C@H](C(C)C)NC(=O)[C@H](Cc2cccc(C)c2)NC(=O)[C@H](CC(=O)O)NC(=O)[C@H](Cc2ccc(C(=O)O)cc2)NC(=O)[C@H](Cc2ccncc2)NC(=O)CSC[C@@H](C(N)=O)NC(=O)[C@H]([C@@H](C)O)NC(=O)[C@H](C(C)C)NC(=O)[C@H](CC2CCCCC2)NC(=O)[C@H](CCN)NC(=O)[C@@H](CC(C)C)NC(=O)[C@H](CCCN)NC1=O (stereo partly drawn) [Compound 2275] ({CH2CO}-[4Pal][Phe(4-COOH)]D[Phe(3-Me)]V[Bip][Ile(3ξ)][Orn][dL][Dab][Cha]VTC-NH2; thioether N-14) | 33.5 nM
CC(C)C[C@@H]1NC(=O)[C@H](Cc2c[nH]c3ccccc23)NC(=O)[C@H](CC(=O)O)NC(=O)[C@H](Cc2ccc(O)cc2)NC(=O)[C@H](Cc2ccccc2)NC(=O)CSC[C@@H](C(=O)NCC(N)=O)NC(=O)[C@H]([C@@H](C)O)NC(=O)[C@H](C(C)C)NC(=O)[C@H](CC(C)C)NC(=O)[C@H](CCN)NC(=O)[C@@H](CC(C)C)NC(=O)[C@H](CCN)NC(=O)[C@H](C(C)C)NC(=O)[C@H](Cc2ccc(-c3ccccc3)cc2)NC1=O [Compound 1060] ({CH2CO}-FYDWL[Bip]V[Dab][dL][Dab]LVTCG-NH2; thioether N-14) | 16.4 nM
CC(C)C[C@H]1NC(=O)[C@H](CCCN)NC(=O)[C@H](C(C)C)NC(=O)[C@H](Cc2ccc(-c3ccccc3)cc2)NC(=O)[C@H](C(C)C)NC(=O)[C@H](Cc2c[nH]c3ccccc23)NC(=O)[C@H](CC(=O)O)NC(=O)[C@H](Cc2ccc(O)cc2)NC(=O)[C@H](CC#N)NC(=O)CSC[C@@H](C(=O)N[C@@H](C)C(N)=O)NC(=O)[C@H](C(C)O)NC(=O)[C@H](C(C)C)NC(=O)[C@H](CC2CCCCC2)NC(=O)[C@H](CCN)NC1=O (stereo partly drawn) [Compound 2536] | 10.9 nM
